Results from PMC10413649 (Science Advances, 2023).

What was measured:
[1] = system: laser-induced DNA damage sites in U2OS cells; test: Laser microirradiation, GFP-PAXX recruitment in mAID-Ku70 U2OS cells with WT or mutated Ku70; format: cell-based, human; details: mAID-Ku70 U2OS cells + IAA, Fig. 3B
Description: We also purified three mutants of Ku70 complexed to WT Ku80 (fig. S7). […] To assess the impact of Ku70 mutations in cells, we engineered a system in U2OS cells to allow replacement of endogenous Ku70 by mutant forms of the protein (Fig. 3A). As Ku is essential for the viability of human cells, we first knocked down endogenous Ku70 expression via the constitutive expression of a short hairpin–mediated RNA (shRNA) combined with cell rescue through expression of Ku70 tagged with a mini auxin-inducible degron (mAID). This allows for rapid degradation of endogenous Ku70 upon addition of auxin [indole-3-acetic acid (IAA)] ([28]). This system permits a strong and fast Ku70 depletion, with concomitant Ku80 depletion due to reciprocal stabilization of both Ku subunits (Fig. 3A).
The generation of U2OS cells expressing a mAID-Ku70 in place of the endogenous protein was achieved as follows. First, U2OS cells were cotransduced with two lentiviral constructs allowing both the expression of an shRNA against Ku70 and the expression of a Ku70 protein resistant to the shRNA and fused to a mAID tag at its N terminus. The latter vector also expresses a puromycin resistance gene, enabling the selection of a transduced cell population. […]

[2] = system: damaged chromatin fraction of U2OS cells expressing WT or mutated Ku70; test: Western blot of chromatin fractions after calicheamicin; format: cell-based, human; details: 3 nM calicheamicin for 1 hour, Fig. 3E
[3] = system: XLF; test: Direct PAXX-XLF interaction test; format: binding; details: tested outside the DNA-PK LR complex; method not described
[4] = system: mutants of Ku70 complexed to WT Ku80; test: ITC, mutant Ku70 (complexed to WT Ku80) with P-KBM; format: binding; details: three Ku70 mutants complexed to WT Ku80 (fig. S7)
Description: DNA-PKcs and full-length His-tagged Ku70/80 were expressed and purified according to ([6]). For crystallography and ITC, the full-length Ku70/80 and a truncated version deleted of its C terminus regions called KuΔC [Ku70 (1 to 544)/Ku80 (1 to 555)], were expressed in Sf21 insect cells using a MultiBac expression system. The Ku80 subunit contains a 10xHis-tag, followed by a Tobacco Etch Virus (TEV) protease site on its N terminus. The Ku70/Ku80 heterodimer was purified according to the protocol described in ([10]). The three KuFL variants with single mutation H162A, R165E, or R517E on Ku70 subunits were expressed in insect cells and purified with the same protocol.
Interaction between Ku-DNA complex and the different peptides (WT and variants) was measured by isothermal calorimetry using a VP-ITC machine. For ITC measurements, the full-length Ku heterodimer was used with the DNA G and F as previously used in ([14]). Before measurements, the Ku heterodimer was extensively dialyzed against buffer [20 mM tris (pH 8), 150 mM NaCl, and 5 mM β-mercaptoethanol]. The cell reaction (1.8 ml) was loaded with the preformed Ku-DNA complex at a 1:1.2 molar ratio respectively. Ku was loaded at 5 μM concentration. The syringe (300 μl) was loaded with the different peptides at different concentrations ranging between 50 and 100 μM. The Ku-DNA complex was titrated by automatic injections of 10 μl at 25°C. […]

[5] = system: laser-induced DNA damage sites in U2OS cells; test: Laser microirradiation, GFP-PAXX and mCherry-XLF coexpressed in U2OS cells with WT or mutated Ku70; format: cell-based, human; details: U2OS cells expressing Ku70 mutants; Fig. 5, B to E

Compound: PAXX: full-length PAXX, paralog of XRCC4 and XLF, 6xHis-tag, expressed in E. coli; WT protein also expressed in cells
- PAXX recruitment to damage sites under Ku depletion ([1]; no complementation): abolished under Ku depletion conditions
- recruitment to damaged chromatin fraction, Ku70 Patch 1 or Patch 2 mutated [2]: not detected in damaged chromatin fraction
- direct interaction of PAXX and XLF [3]: did not observe a direct interaction when tested

Compound: CC[C@H](C)[C@H](NC(=O)[C@H](CC(C)C)NC(=O)[C@H](CO)NC(=O)[C@H](CCC(=O)O)NC(=O)CNC(=O)[C@@H]1CCCN1C(=O)[C@H](CS)NC(=O)[C@H](CCCNC(=N)N)NC(=O)[C@H](CCCNC(=N)N)NC(=O)[C@H](CCCNC(=N)N)NC(C)=O)C(=O)N[C@@H](CC(N)=O)C(=O)N1CCC[C@H]1C(=O)NCC(=O)N[C@@H](Cc1ccccc1)C(=O)N[C@@H](CCCCN)C(=O)N[C@@H](CO)C(=O)N[C@@H](CCCCN)C(=O)N[C@@H](CCCCN)C(=O)N1CCC[C@H]1C(=O)N[C@@H](C)C(=O)NCC(=O)NCC(=O)N[C@H](C(=O)N[C@@H](CC(=O)O)C(=O)N[C@@H](Cc1ccccc1)C(=O)N[C@@H](CC(=O)O)C(=O)N[C@@H](CCC(=O)O)C(=O)N[C@H](C(=O)O)[C@@H](C)O)C(C)C [KBM]
- residual interaction of Ku70 mutants with P-KBM (ITC, words) [4]: no residual interaction

Compound: WT Ku70: recombinant wild-type Ku70 used to replace degraded endogenous Ku70
- PAXX recruitment to microirradiated areas, restored by recombinant Ku70 ([1]; complemented with WT Ku70): restored to levels similar to those in native U2OS cells

Compound: GFP-PAXX: GFP-tagged PAXX construct expressed in U2OS cells
- recruitment of coexpressed GFP-PAXX / mCherry-XLF to DNA damage sites with Ku70 mutations [5]: compromised to various extents
